Reference: patent publication US9238039B2, “Pyrazolo[1,5-A]pyrimidines for antiviral treatment” (Gilead Sciences, Inc., priority 2010, dated 2016)

The compounds below were run on RSV strain A2 (assay: RSV antiviral cytoprotection assay in Hep2 cells (96-well and 384-well format, Cell TiterGlo read-out)). Settings: human respiratory syncytial virus, HEp-2, 0.5 uM; RSV-induced cytopathic effect in Hep2 cells; calculated from fitted dose response curve, normalized to 0% and 100%.
Format: cell-based, Respiratory Syncytial Virus (RSV)

Point of comparison: Cc1nc(C(=O)N2CCCC[C@H]2c2cc3nc(N4CC[C@H](N)C4)c(C)cn3n2)cs1 [Compound 288], inhibition at 0.5 µM 100%. Against it:
- CCc1ocnc1C(=O)N1CCCC[C@H]1c1cc2nc(N3CC[C@H](N)C3)c(C)cn2n1 [Compound 284] — lower, 97.8%
- Cc1cn2nc([C@@H]3CCCCN3C(=O)c3nnn(C)c3C)cc2nc1N1CC[C@H](N)C1 [Compound 285] — the same, 100%
- Cc1ccc(C(=O)N2CCCC[C@H]2c2cc3nc(N4CC[C@H](N)C4)c(C)cn3n2)s1 [Compound 286] — the same, 100%
- C#Cc1cccc(C(=O)N2CCCC[C@H]2c2cc3nc(N4CC[C@H](N)C4)c(C)cn3n2)c1 [Compound 289] — the same, 100%
- Cc1cn2nc([C@@H]3CCCCN3C(=O)c3ccccc3CO)cc2nc1N1CC[C@H](N)C1 [Compound 291] — lower, 88%
- Cc1ccc(O)cc1C(=O)N1CCCC[C@H]1c1cc2nc(N3CC[C@H](N)C3)c(C)cn2n1 [Compound 292] — lower, 59%
- Cc1ccc(C(=O)N2CCCC[C@H]2c2cc3nc(N4CC[C@H](N)C4)c(C)cn3n2)c(O)c1 [Compound 293] — lower, 64%
- Cc1ccc(C(=O)N2CCCC[C@H]2c2cc3nc(N4CC[C@H](N)C4)c(C)cn3n2)cc1O [Compound 294] — lower, 14%
- COc1cccc(C(=O)N2CCCC[C@H]2c2cc3nc(N4CC[C@H](N)C4)c(C)cn3n2)c1 [Compound 295] — lower, 97%
- Cc1cn2nc([C@@H]3CCCCN3C(=O)c3n[nH]c4c3CCC4)cc2nc1N1CC[C@H](N)C1 [Compound 296] — lower, 49%
- Cc1cn2nc([C@@H]3CCCCN3C(=O)c3cc(C4CC4)[nH]n3)cc2nc1N1CC[C@H](N)C1 [Compound 297] — lower, 95%
- Cc1ccc(C(=O)N2CCCC[C@H]2c2cc3nc(N4CC[C@H](N)C4)c(C)cn3n2)c(F)c1 [Compound 298] — lower, 21%
- CCCn1nccc1C(=O)N1CCCC[C@H]1c1cc2nc(N3CC[C@H](N)C3)c(C)cn2n1 [Compound 300] — lower, 99%
- CCn1nc(C(=O)N2CCCC[C@H]2c2cc3nc(N4CC[C@H](N)C4)c(C)cn3n2)cc1C [Compound 301] — the same, 100%
- CCn1nc(C)cc1C(=O)N1CCCC[C@H]1c1cc2nc(N3CC[C@H](N)C3)c(C)cn2n1 [Compound 302] — the same, 100%
- CCc1cc(C(=O)N2CCCC[C@H]2c2cc3nc(N4CC[C@H](N)C4)c(C)cn3n2)n(C)n1 [Compound 303] — the same, 100%
- CCc1ccc(C(=O)N2CCCC[C@H]2c2cc3nc(N4CC[C@H](N)C4)c(C)cn3n2)s1 [Compound 304] — the same, 100%
- Cc1cn2nc([C@@H]3CCCCN3C(=O)c3cccc(Cl)n3)cc2nc1N1CC[C@H](N)C1 [Compound 305] — the same, 100%
- Cc1cn2nc([C@@H]3CCCCN3C(=O)c3cncc(Cl)c3)cc2nc1N1CC[C@H](N)C1 [Compound 306] — the same, 100%
- Cc1cn2nc([C@@H]3CCCCN3C(=O)c3cccc(F)c3F)cc2nc1N1CC[C@H](N)C1 [Compound 307] — the same, 100%
- COc1ccsc1C(=O)N1CCCC[C@H]1c1cc2nc(N3CC[C@H](N)C3)c(C)cn2n1 [Compound 308] — the same, 100%

Same assay, conditions: human respiratory syncytial virus, HEp-2, RSV-induced cytopathic effects, Hep2 cells; class symbols

First: CCc1ocnc1C(=O)N1CCCC[C@H]1c1cc2nc(N3CC[C@H](N)C3)c(C)cn2n1 [Compound 284]
Second: Cc1cn2nc([C@@H]3CCCCN3C(=O)c3scnc3C)cc2nc1N1CC[C@H](N)C1 [Compound 287]
The EC50 of the first is lower: 0.1 to 100 nM for the first, 1000 to 10000 nM for the second. The first is the more potent here.

Cc1cn2nc([C@@H]3CCCCN3C(=O)c3nnn(C)c3C)cc2nc1N1CC[C@H](N)C1 [Compound 285] and CCc1cc(C(=O)N2CCCC[C@H]2c2cc3nc(N4CC[C@H](N)C4)c(C)cn3n2)n(C)n1 [Compound 303] fall in the same range of EC50: 0.1 to 100 nM for the first, 0.1 to 100 nM for the second.

Cc1ccc(C(=O)N2CCCC[C@H]2c2cc3nc(N4CC[C@H](N)C4)c(C)cn3n2)s1 [Compound 286] and CCc1ccc(C(=O)N2CCCC[C@H]2c2cc3nc(N4CC[C@H](N)C4)c(C)cn3n2)s1 [Compound 304] fall in the same range of EC50: 0.1 to 100 nM for the first, 0.1 to 100 nM for the second.

Cc1nc(C(=O)N2CCCC[C@H]2c2cc3nc(N4CC[C@H](N)C4)c(C)cn3n2)cs1 [Compound 288] and CCn1nc(C(=O)N2CCCC[C@H]2c2cc3nc(N4CC[C@H](N)C4)c(C)cn3n2)cc1C [Compound 301] fall in the same range of EC50: 0.1 to 100 nM for the first, 0.1 to 100 nM for the second.

C#Cc1cccc(C(=O)N2CCCC[C@H]2c2cc3nc(N4CC[C@H](N)C4)c(C)cn3n2)c1 [Compound 289] and COc1cccc(C(=O)N2CCCC[C@H]2c2cc3nc(N4CC[C@H](N)C4)c(C)cn3n2)c1 [Compound 295] fall in the same range of EC50: 0.1 to 100 nM for the first, 0.1 to 100 nM for the second.

Cc1cn2nc([C@@H]3CCCCN3C(=O)c3ccc(C#N)cn3)cc2nc1N1CC[C@H](N)C1 [Compound 290] and Cc1cn2nc([C@@H]3CCCCN3C(=O)c3cccc(Cl)n3)cc2nc1N1CC[C@H](N)C1 [Compound 305] fall in the same range of EC50: 0.1 to 100 nM for the first, 0.1 to 100 nM for the second.

Cc1cn2nc([C@@H]3CCCCN3C(=O)c3ccccc3CO)cc2nc1N1CC[C@H](N)C1 [Compound 291] and Cc1cn2nc([C@@H]3CCCCN3C(=O)c3cccc(F)c3F)cc2nc1N1CC[C@H](N)C1 [Compound 307] fall in the same range of EC50: 0.1 to 100 nM for the first, 0.1 to 100 nM for the second.

Cc1ccc(O)cc1C(=O)N1CCCC[C@H]1c1cc2nc(N3CC[C@H](N)C3)c(C)cn2n1 [Compound 292] and Cc1ccc(C(=O)N2CCCC[C@H]2c2cc3nc(N4CC[C@H](N)C4)c(C)cn3n2)c(O)c1 [Compound 293] fall in the same range of EC50: 101 to 1000 nM for the first, 101 to 1000 nM for the second.

Compared with Cc1ccc(C(=O)N2CCCC[C@H]2c2cc3nc(N4CC[C@H](N)C4)c(C)cn3n2)cc1O [Compound 294], Cc1ccc(C(=O)N2CCCC[C@H]2c2cc3nc(N4CC[C@H](N)C4)c(C)cn3n2)c(F)c1 [Compound 298] is lower in EC50: 1000 to 10000 nM for the first, 101 to 1000 nM for the second.

First: Cc1cn2nc([C@@H]3CCCCN3C(=O)c3n[nH]c4c3CCC4)cc2nc1N1CC[C@H](N)C1 [Compound 296]
Second: Cc1cn2nc([C@@H]3CCCCN3C(=O)c3cc(C4CC4)[nH]n3)cc2nc1N1CC[C@H](N)C1 [Compound 297]
The EC50 of the first is higher: 101 to 1000 nM for the first, 0.1 to 100 nM for the second.

CCCn1nccc1C(=O)N1CCCC[C@H]1c1cc2nc(N3CC[C@H](N)C3)c(C)cn2n1 [Compound 300] and CCn1nc(C)cc1C(=O)N1CCCC[C@H]1c1cc2nc(N3CC[C@H](N)C3)c(C)cn2n1 [Compound 302] fall in the same range of EC50: 0.1 to 100 nM for the first, 0.1 to 100 nM for the second.

Cc1cn2nc([C@@H]3CCCCN3C(=O)c3cncc(Cl)c3)cc2nc1N1CC[C@H](N)C1 [Compound 306] and COc1ccsc1C(=O)N1CCCC[C@H]1c1cc2nc(N3CC[C@H](N)C3)c(C)cn2n1 [Compound 308] fall in the same range of EC50: 0.1 to 100 nM for the first, 0.1 to 100 nM for the second.
